Among the data in ChEMBL document CHEMBL1142111, “Induced production of emericellamides A and B from the marine-derived fungus Emericella sp. in competing co-culture” (J Nat Prod, 2007) are IC50 and MIC values, retold here.

The term IC50 denotes the concentration needed to halve the response being measured. Low values mean greater potency, high ones weaker potency. By MIC is commonly meant the lowest concentration that inhibits growth of the organism. Low values mean inhibition by little substance, high ones a need for much substance.

Structures are written as SMILES. Values after ≈ are worked out from the molar mass of the structure shown.

One test has as its system HCT-116. Put plainly: Cytotoxicity against human HCT116 cells. It counts as cell-based.
The next test concerns Staphylococcus aureus. The test is described as follows: Antimicrobial activity against methicillin-resistant Staphylococcus aureus. It counts as functional.

As for `CCCCCC[C@H](C)C[C@H](C)[C@H]1OC(=O)[C@H](C)NC(=O)[C@H](C)NC(=O)[C@H](CC(C)C)NC(=O)[C@H](C(C)C)NC(=O)CNC(=O)[C@@H]1C` [EMERICELLAMIDE B], in the test on HCT-116, the 50% inhibitory concentration (IC50) is 40 µM. The same molecule registered an MIC with Staphylococcus aureus of 6 µM (≈ 3.91 µg/mL).
For `CCCCCC[C@H](C)[C@H]1OC(=O)[C@H](C)NC(=O)[C@H](C)NC(=O)[C@H](CC(C)C)NC(=O)[C@H](C(C)C)NC(=O)CNC(=O)[C@@H]1C` [EMERICELLAMIDE A], in that order: 23 µM and 3.8 µM (≈ 2.32 µg/mL).
